Laboratory results: ChEMBL document CHEMBL4507273 (2021)
pKi: −log10 of the molar value.

Columns and labels:
[1] = target: Serine/threonine-protein kinase 26 (Homo sapiens) (UniProt Q9P289); details: Compound concentration 1000.0 nM
[2] = target: Mast/stem cell growth factor receptor Kit (Homo sapiens) (UniProt P10721); details: Compound concentration 1000.0 nM
[3] = test system: Tyrosine-protein kinase ABL1 (Homo sapiens), P00519 [H396P]; details: Compound concentration 1000.0 nM
[4] = target: Calcium/calmodulin-dependent protein kinase kinase 1 (Homo sapiens) (UniProt Q8N5S9); details: Compound concentration 1000.0 nM
Chain of Calcium/calmodulin-dependent protein kinase kinase 1 (Homo sapiens) (Q8N5S9 whole entry, looked up): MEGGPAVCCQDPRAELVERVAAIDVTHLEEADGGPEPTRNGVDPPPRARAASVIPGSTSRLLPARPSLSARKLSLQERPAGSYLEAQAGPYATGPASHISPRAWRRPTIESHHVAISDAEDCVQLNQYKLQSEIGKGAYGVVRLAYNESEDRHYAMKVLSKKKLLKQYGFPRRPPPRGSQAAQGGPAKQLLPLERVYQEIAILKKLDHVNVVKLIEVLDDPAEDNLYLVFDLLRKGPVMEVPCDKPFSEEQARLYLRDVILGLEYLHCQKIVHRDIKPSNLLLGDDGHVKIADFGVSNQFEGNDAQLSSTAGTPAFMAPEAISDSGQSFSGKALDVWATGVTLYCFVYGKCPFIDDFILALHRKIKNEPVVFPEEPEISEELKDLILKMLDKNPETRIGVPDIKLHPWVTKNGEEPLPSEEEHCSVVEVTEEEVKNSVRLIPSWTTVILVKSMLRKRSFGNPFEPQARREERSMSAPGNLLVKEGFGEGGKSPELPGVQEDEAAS

[5] = target: Activin receptor type-1B (Homo sapiens) (UniProt P36896); details: Compound concentration 1000.0 nM
[6] = target: Serine/threonine-protein kinase 32C (Homo sapiens) (UniProt Q86UX6); details: Compound concentration 1000.0 nM
[7] = target: Glycogen synthase kinase-3 beta (Homo sapiens) (UniProt P49841); details: Compound concentration 1000.0 nM
[8] = target: Casein kinase I isoform gamma-3 (Homo sapiens) (UniProt Q9Y6M4); details: Compound concentration 1000.0 nM
[9] = target: Homeodomain-interacting protein kinase 1 (Homo sapiens) (UniProt Q86Z02); details: Compound concentration 1000.0 nM
Chain of Homeodomain-interacting protein kinase 1 (Homo sapiens) (Q86Z02 whole entry, looked up): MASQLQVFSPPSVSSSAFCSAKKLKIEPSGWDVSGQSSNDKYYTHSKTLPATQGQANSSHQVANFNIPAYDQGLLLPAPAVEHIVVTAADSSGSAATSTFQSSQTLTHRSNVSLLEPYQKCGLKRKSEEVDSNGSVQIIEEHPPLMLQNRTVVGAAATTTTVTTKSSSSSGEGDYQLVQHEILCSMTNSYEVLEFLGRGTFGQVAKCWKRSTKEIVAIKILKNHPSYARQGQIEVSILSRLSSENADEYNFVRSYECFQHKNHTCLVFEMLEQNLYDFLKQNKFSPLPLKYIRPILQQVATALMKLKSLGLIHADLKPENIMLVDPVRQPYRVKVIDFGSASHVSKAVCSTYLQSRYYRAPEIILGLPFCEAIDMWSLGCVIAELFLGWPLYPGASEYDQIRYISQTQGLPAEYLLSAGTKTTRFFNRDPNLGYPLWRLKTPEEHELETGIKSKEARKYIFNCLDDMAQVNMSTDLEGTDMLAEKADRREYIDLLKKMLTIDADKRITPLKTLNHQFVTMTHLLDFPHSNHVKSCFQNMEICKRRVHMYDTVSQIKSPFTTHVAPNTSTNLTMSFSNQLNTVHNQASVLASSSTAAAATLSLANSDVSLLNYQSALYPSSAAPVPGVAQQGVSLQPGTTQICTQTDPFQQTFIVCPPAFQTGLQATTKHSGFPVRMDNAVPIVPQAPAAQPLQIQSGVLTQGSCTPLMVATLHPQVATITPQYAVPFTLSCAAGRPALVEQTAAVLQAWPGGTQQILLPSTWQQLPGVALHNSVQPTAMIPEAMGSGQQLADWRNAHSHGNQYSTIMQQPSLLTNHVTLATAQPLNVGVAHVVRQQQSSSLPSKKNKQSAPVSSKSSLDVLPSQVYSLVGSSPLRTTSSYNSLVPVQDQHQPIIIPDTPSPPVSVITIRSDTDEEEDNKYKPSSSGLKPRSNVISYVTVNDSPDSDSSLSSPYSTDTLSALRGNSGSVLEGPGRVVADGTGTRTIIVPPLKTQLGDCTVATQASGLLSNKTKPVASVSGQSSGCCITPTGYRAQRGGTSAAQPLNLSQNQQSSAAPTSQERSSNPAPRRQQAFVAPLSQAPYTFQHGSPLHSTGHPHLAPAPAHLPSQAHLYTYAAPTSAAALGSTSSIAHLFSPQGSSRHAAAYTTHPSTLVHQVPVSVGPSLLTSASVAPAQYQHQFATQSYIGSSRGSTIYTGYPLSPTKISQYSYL

[10] = target: Mitogen-activated protein kinase 6 (Homo sapiens) (UniProt Q16659); details: Compound concentration 1000.0 nM
[11] = target: Mitotic checkpoint serine/threonine-protein kinase BUB1 (Homo sapiens) (UniProt O43683); details: Compound concentration 1000.0 nM
[12] = test system: Mast/stem cell growth factor receptor Kit (Homo sapiens), P10721 [V559D]; details: Compound concentration 1000.0 nM
[13] = target: Ephrin type-A receptor 1 (Homo sapiens) (UniProt P21709); details: Compound concentration 1000.0 nM
Chain of Ephrin type-A receptor 1 (Homo sapiens) (P21709 whole entry): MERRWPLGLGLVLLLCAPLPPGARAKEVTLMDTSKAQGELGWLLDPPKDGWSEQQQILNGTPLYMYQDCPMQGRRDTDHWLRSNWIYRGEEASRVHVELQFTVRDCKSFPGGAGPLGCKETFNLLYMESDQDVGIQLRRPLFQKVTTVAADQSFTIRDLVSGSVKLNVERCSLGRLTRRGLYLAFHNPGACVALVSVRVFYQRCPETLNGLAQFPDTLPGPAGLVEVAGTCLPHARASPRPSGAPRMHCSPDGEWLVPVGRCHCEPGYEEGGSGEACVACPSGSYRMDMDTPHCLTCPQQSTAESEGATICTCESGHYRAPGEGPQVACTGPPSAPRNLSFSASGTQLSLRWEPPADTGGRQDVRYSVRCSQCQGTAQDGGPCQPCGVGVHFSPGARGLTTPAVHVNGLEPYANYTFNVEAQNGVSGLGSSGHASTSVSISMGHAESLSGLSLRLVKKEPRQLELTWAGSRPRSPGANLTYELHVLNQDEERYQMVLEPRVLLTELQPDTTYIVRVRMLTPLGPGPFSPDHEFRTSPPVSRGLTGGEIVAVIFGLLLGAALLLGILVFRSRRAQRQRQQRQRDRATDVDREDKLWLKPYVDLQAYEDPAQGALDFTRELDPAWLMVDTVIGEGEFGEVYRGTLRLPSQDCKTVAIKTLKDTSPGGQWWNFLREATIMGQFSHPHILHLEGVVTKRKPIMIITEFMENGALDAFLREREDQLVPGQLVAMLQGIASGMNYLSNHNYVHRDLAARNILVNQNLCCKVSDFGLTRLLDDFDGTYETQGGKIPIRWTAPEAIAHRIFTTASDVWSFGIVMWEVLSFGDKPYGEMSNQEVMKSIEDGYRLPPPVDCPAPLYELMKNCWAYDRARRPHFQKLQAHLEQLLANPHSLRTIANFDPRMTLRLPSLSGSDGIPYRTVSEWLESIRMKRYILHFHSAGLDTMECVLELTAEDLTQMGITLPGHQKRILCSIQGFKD

[14] = target: Activin receptor type-1-like (Homo sapiens) (UniProt P37023); details: Compound concentration 1000.0 nM
[15] = target: Homeodomain-interacting protein kinase 3 (Homo sapiens) (UniProt Q9H422); details: Compound concentration 1000.0 nM
[16] = target: Cyclin-G-associated kinase (Homo sapiens) (UniProt O14976); details: Compound concentration 1000.0 nM
[17] = target: Atypical kinase COQ8B, mitochondrial (Homo sapiens) (UniProt Q96D53); details: Compound concentration 1000.0 nM
[18] = target: Cyclin-dependent kinase 16 (Homo sapiens) (UniProt Q00536); details: Compound concentration 1000.0 nM
[19] = target: Phosphatidylinositol 4-phosphate 5-kinase type-1 gamma (Homo sapiens) (UniProt O60331); details: Compound concentration 1000.0 nM
[20] = target: Serine/threonine-protein kinase Chk2 (Homo sapiens) (UniProt O96017); details: Compound concentration 1000.0 nM
[21] = test system: Mast/stem cell growth factor receptor Kit (Homo sapiens), P10721 [L576P]; details: Compound concentration 1000.0 nM
[22] = target: Bone morphogenetic protein receptor type-1A (Homo sapiens) (UniProt P36894); details: Compound concentration 1000.0 nM
[23] = target: Leucine-rich repeat serine/threonine-protein kinase 2 (Homo sapiens) (UniProt Q5S007); details: Compound concentration 1000.0 nM
[24] = target: Sigma intracellular receptor 2 (Homo sapiens, UniProt Q5BJF2); experiment: GPCRScan assay: inhibition of Sigma 2; design: radioligand conc. used [nm] 5.0, parental cells HEKT; details: for pKi: read-out: Ki
Chain of Sigma intracellular receptor 2 (Q5BJF2 whole entry, canonical isoform): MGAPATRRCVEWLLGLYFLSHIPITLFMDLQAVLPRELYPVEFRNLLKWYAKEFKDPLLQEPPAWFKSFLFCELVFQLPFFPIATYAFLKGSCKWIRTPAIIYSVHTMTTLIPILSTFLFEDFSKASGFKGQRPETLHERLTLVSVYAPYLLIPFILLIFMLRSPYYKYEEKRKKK

[25] = test system: Phosphatidylinositol 4,5-bisphosphate 3-kinase catalytic subunit alpha isoform (Homo sapiens), P42336 [E542K]; details: Compound concentration 1000.0 nM
[26] = target: Mitogen-activated protein kinase 1 (Homo sapiens) (UniProt P28482); details: Compound concentration 1000.0 nM
[27] = target: Serine/threonine-protein kinase MRCK beta (Homo sapiens) (UniProt Q9Y5S2); details: Compound concentration 1000.0 nM
[28] = target: Mitogen-activated protein kinase 3 (Homo sapiens) (UniProt P27361); details: Compound concentration 1000.0 nM
[29] = target: Serine/threonine-protein kinase STK11 (Homo sapiens) (UniProt Q15831); details: Compound concentration 1000.0 nM
[30] = test system: Serine/threonine-protein kinase B-raf (Homo sapiens), P15056 [V600E]; details: Compound concentration 1000.0 nM
[31] = target: Bone morphogenetic protein receptor type-1B (Homo sapiens) (UniProt O00238); details: Compound concentration 1000.0 nM
[32] = target: Fibroblast growth factor receptor 1 (Homo sapiens) (UniProt P11362); details: Compound concentration 1000.0 nM
Chain of Fibroblast growth factor receptor 1 (Homo sapiens) (P11362 22-822 limits assumed): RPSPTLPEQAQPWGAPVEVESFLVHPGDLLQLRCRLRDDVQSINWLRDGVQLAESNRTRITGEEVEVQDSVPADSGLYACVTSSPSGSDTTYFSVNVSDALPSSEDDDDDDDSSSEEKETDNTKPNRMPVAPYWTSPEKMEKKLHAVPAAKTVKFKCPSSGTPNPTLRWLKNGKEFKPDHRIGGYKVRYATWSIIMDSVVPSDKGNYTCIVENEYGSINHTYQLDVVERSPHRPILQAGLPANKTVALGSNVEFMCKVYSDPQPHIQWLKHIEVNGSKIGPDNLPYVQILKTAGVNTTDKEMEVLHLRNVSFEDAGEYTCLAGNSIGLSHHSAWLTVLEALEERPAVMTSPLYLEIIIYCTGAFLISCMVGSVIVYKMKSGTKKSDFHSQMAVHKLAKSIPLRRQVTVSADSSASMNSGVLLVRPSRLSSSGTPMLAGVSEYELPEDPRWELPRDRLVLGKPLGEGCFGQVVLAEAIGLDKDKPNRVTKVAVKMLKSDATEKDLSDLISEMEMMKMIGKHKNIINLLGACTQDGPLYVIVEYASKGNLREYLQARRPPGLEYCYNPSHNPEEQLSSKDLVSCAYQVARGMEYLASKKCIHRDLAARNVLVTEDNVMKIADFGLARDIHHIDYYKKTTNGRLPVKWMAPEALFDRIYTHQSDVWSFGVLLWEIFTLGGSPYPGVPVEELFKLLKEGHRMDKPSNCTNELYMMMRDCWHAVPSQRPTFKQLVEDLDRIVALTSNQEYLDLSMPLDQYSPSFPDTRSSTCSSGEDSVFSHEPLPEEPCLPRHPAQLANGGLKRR

[33] = test system: Receptor-type tyrosine-protein kinase FLT3 (Homo sapiens), P36888 [D835Y]; details: Compound concentration 1000.0 nM
[34] = target: Dual specificity tyrosine-phosphorylation-regulated kinase 1A (Homo sapiens) (UniProt Q13627); details: Compound concentration 1000.0 nM
[35] = target: Serine/threonine-protein kinase PAK 5 (Homo sapiens) (UniProt Q9P286); details: Compound concentration 1000.0 nM
[36] = target: Discoidin domain-containing receptor 2 (Homo sapiens) (UniProt Q16832); details: Compound concentration 1000.0 nM
[37] = target: Cyclin-dependent kinase 2 (Homo sapiens) (UniProt P24941); details: Compound concentration 1000.0 nM
[38] = target: Cyclin-dependent kinase-like 3 (Homo sapiens) (UniProt Q8IVW4); details: Compound concentration 1000.0 nM
Chain of Cyclin-dependent kinase-like 3 (Homo sapiens) (Q8IVW4 whole entry, looked up, canonical isoform): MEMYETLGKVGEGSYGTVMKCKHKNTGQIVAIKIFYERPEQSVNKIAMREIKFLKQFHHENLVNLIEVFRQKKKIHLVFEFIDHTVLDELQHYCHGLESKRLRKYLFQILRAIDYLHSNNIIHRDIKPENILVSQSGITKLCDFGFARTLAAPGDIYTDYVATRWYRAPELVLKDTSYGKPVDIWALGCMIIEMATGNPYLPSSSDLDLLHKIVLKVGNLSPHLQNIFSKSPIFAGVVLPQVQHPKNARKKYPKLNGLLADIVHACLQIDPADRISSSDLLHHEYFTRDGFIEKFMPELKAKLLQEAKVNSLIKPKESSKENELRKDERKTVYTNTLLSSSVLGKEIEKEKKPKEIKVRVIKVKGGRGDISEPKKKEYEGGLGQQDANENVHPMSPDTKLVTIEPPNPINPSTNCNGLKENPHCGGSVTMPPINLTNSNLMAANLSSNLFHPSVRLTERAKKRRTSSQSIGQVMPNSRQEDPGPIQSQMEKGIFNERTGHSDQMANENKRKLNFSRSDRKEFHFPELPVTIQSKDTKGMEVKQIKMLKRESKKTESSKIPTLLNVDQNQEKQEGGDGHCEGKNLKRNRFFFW

[39] = target: Casein kinase I isoform alpha-like (Homo sapiens) (UniProt Q8N752); details: Compound concentration 1000.0 nM
[40] = test system: Tyrosine-protein kinase ABL1 (Homo sapiens), P00519 [M351T]; details: Compound concentration 1000.0 nM
[41] = target: Muscarinic acetylcholine receptor M4 (Homo sapiens) (UniProt P08173); details: Compound concentration 10.0 uM
[42] = target: Serine/threonine-protein kinase haspin (Homo sapiens) (UniProt Q8TF76); details: Compound concentration 1000.0 nM
Chain of Serine/threonine-protein kinase haspin (Homo sapiens) (Q8TF76 whole entry): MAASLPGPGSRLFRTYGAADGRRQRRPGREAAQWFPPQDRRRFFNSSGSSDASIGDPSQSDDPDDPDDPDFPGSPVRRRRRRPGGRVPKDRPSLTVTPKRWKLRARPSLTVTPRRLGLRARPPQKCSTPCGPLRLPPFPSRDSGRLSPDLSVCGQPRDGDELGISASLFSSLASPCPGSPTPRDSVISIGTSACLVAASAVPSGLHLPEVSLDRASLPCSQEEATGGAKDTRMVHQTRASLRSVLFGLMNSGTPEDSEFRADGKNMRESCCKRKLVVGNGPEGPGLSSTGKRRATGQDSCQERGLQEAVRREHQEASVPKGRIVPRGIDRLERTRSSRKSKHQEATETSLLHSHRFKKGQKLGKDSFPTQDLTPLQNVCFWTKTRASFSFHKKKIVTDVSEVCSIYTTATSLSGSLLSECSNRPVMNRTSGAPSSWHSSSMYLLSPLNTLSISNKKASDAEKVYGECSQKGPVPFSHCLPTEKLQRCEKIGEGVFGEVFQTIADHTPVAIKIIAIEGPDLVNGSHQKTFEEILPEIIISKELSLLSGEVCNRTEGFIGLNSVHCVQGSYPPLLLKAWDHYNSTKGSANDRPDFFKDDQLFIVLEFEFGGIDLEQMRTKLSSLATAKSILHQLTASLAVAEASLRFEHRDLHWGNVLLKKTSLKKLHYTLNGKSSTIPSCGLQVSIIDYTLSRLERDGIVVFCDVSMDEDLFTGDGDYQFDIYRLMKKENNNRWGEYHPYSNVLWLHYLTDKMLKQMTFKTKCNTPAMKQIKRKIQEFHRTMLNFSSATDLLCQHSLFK

[43] = target: Serine/threonine-protein kinase RIO1 (Homo sapiens) (UniProt Q9BRS2); details: Compound concentration 1000.0 nM
[44] = target: Serine/threonine-protein kinase BRSK2 (Homo sapiens) (UniProt Q8IWQ3); details: Compound concentration 1000.0 nM
[45] = target: Serine/threonine-protein kinase VRK2 (Homo sapiens) (UniProt Q86Y07); details: Compound concentration 1000.0 nM

For `CNCc1ccccc1-c1csc([C@H](C)Nc2nc(C)nc3cc(OC)c(OC)cc23)c1` [BAY-294], the residual activity [1] was 97%, the residual activity [2] was 70% and the residual activity [3] was 95%. It also gave a residual activity [4] of 99%, a residual activity [5] of 100% and a residual activity [6] of 71%. It also gave a residual activity [7] of 100%, a residual activity [8] of 93% and a residual activity [9] of 79%. For the same compound, the residual activity [10] was 100%, the residual activity [11] was 100% and the residual activity [12] was 100%. For the same compound, the residual activity [13] was 100%, the residual activity [14] was 100% and the residual activity [15] was 97%. For the same compound, the residual activity [16] was 90%, the residual activity [17] was 93% and the residual activity [18] was 83%. It also gave a residual activity [19] of 100%, a residual activity [20] of 87% and a residual activity [21] of 100%. It also gave a residual activity [22] of 100%, a residual activity [23] of 100% and a pKi [24] of 6.20. The Ki ([24]; read-out: pKi (converted)) was 610 nM, the residual activity [25] was 88% and the residual activity [26] was 100%. It also gave a residual activity [27] of 100%, a residual activity [28] of 100% and a residual activity [29] of 100%. For the same compound, the residual activity [30] was 84%, the residual activity [31] was 100% and the residual activity [32] was 100%. The residual activity [33] was 100%, the residual activity [34] was 80% and the residual activity [35] was 100%. It also gave a residual activity [36] of 94%, a residual activity [37] of 91% and a residual activity [38] of 97%. It also gave a residual activity [39] of 100%, a residual activity [40] of 85% and an inhibition [41] of 59.4%. For the same compound, the residual activity [42] was 100%, the residual activity [43] was 96% and the residual activity [44] was 100%. For the same compound, the residual activity [45] was 73%.
`CNCc1ccccc1-c1csc([C@@H](C)Nc2nc(C)nc3cc(OC)c(OC)cc23)c1` [BAY-293] was tested, and the residual activity [1] was 99%, the residual activity [2] was 81% and the residual activity [3] was 93%. The residual activity [4] was 100%, the residual activity [5] was 91% and the residual activity [6] was 60%. For the same compound, the residual activity [7] was 90%, the residual activity [8] was 99% and the residual activity [9] was 78%. The residual activity [10] was 100%, the residual activity [11] was 100% and the residual activity [12] was 100%. It also gave a residual activity [13] of 79%, a residual activity [14] of 87% and a residual activity [15] of 83%. The residual activity [16] was 88%, the residual activity [17] was 65% and the residual activity [18] was 87%. It also gave a residual activity [19] of 88%, a residual activity [20] of 76% and a residual activity [21] of 92%. It also gave a residual activity [22] of 91%, a residual activity [23] of 100% and a pKi [24] of 6.75. For the same compound, the residual activity [25] was 80%, the residual activity [26] was 78% and the residual activity [27] was 89%. It also gave a residual activity [28] of 94%, a residual activity [29] of 96% and a residual activity [30] of 100%. The residual activity [31] was 83%, the residual activity [32] was 100% and the residual activity [33] was 84%. For the same compound, the residual activity [34] was 88%, the residual activity [35] was 95% and the residual activity [36] was 92%. For the same compound, the residual activity [37] was 82%, the residual activity [38] was 99% and the residual activity [39] was 100%. For the same compound, the residual activity [40] was 74%, the inhibition [41] was 43.1% and the residual activity [42] was 98%. The residual activity [43] was 100%, the residual activity [44] was 100% and the residual activity [45] was 89%.
